{"source": "patent US7488825B2", "about": "(Kabushiki Kaisha Yakult Honsha, priority 2003, dated 2009)", "key": {"[1]": {"assay": "Solubility measurement in preparation solution (water solubility)", "format": "physicochemical", "conditions": "hydrochloride; for dissolution amount: preparation solution (D-sorbitol, lactic acid, pH about 3.5), shaken at 22° C. for 30 minutes; for water solubility: pH3.5", "protocol": "About 0.5 g of b- or c-type crystals were weighed out, suspended in a preparation solution, and shaken at 22° C. for 30 minutes (130 r/min). The mixture was filtered by a membrane filter (0.45 μm). To 1 ml of the filtrate, the preparation solution was added up to 200 mL. 10 μl was aliquoted and analyzed by liquid chromatography. The dissolution amount was obtained on the basis of a calibration curve previously prepared.\nNote that the preparation solution used herein was prepared by dissolving 45 g of D-sorbitol in an appropriate amount of distilled water for injection, adding 900 mg of lactic acid, adjusting pH of the solution at about 3.5, and adding distilled water for injection up to 1000 mL."}, "[2]": {"assay": "Change of dissolution state over time (30 mg/mL in preparation solution)", "format": "physicochemical", "conditions": "shaken for several minutes"}}, "note": "Where a name gives a salt, the structure may show the parent alone.", "data": [{"compound": "CCc1c2c(nc3ccc(OC(=O)N4CCC(N5CCCCC5)CC4)cc13)-c1cc3c(c(=O)n1C2)COC(=O)[C@]3(O)CC", "note": "[No. 3, irinotecan hydrochloride]", "values": [{"measurement": "dissolution amount", "setting": "[1]", "result": "≥ 100", "unit": "mg/mL"}]}, {"compound": "CCc1c2c(nc3ccc(OC(=O)N4CCC(N5CCCCC5)CC4)cc13)-c1cc3c(c(=O)n1C2)COC(=O)[C@]3(O)CC", "note": "[b-type crystals, irinotecan hydrochloride]", "values": [{"measurement": "water solubility", "setting": "[1]", "result": 11.4, "unit": "mg/mL"}, {"measurement": "dissolution amount", "setting": "[1]", "result": 11.4, "unit": "mg/mL"}, {"measurement": "temperature needed to dissolve", "setting": "[2]", "result": "about 70 °C"}]}, {"compound": "CCc1c2c(nc3ccc(OC(=O)N4CCC(N5CCCCC5)CC4)cc13)-c1cc3c(c(=O)n1C2)COC(=O)[C@]3(O)CC", "note": "[c-type crystals, irinotecan hydrochloride]", "values": [{"measurement": "water solubility", "setting": "[1]", "result": "≥ 100", "unit": "mg/mL"}]}]}
